Test results reported in patent US12391919B2, “Culture medium, coating matrix and method for maturing midbrain dopaminergic progenitor cells” (NUWACELL BIOTECHNOLOGIES CO., LTD., priority 2022, dated 2025).

Tested on: imDAPs
Test: Flow cytometry (FACS) analysis of FOXA2 expression in expanded imDAPs
Format: cell-based, human
Experimental: • 1. Individualize and collect cells by either Accutase or TrypLE treatment. • 2. Wash cells with 1 ml PBS and pellet cells at 250×g for 15 sec. • 3. Remove supernatant, add ˜200 μl of 4% PFA, mix and fix for 10 min at RT. • 4. Pellet cells at 350×g for 5 min. • 5. Wash cells by 1 ml of FACS buffer and pellet cells at 350×g for 5 min. • 6. Remove supernatant, add 200 μl/tube of FACS buffer/0.1% TritonX, mix for 10 min at RT. • 7. Wash cells by 1 ml of FACS buffer and pellet cells at 350×g for 5 min. • 8. Remove supernatant, add 200 μl/tube of primary antibody diluted in FACS buffer, mix gently, and incubate for 30 min at RT. • 9. Wash cells by 1 ml of FACS buffer and pellet cells at 350×g for 5 min. • 10. Remove supernatant, and add 200 μl of secondary antibody diluted in FACS buffer, mix gently, and incubate for 30 min at RT. • 11. Wash cells by 1 ml of FACS buffer and pellet cells at 300×g for 5 min. • 12. Remove supernatant, add 200 μl of FACS buffer, and run samples on the flow cytometry. (2) qRT-PCR • 1. For qRT-PCR analysis of mRNA gene expression, RNA should be harvested from at least 2×10^6 cells. • 2. Harvest cells, add 350 μl of buffer RLT+1% (vol/vol) s-mercaptoethanol to the well, transfer the lysate to a 1.5 ml tube, and put it immediately on ice. • 3. Perform RNA extraction using the Tiangen Kit (DP430), and follow the manufacturer's protocol ‘Purification of total RNA from animal and human cells’. • 4. When the RNA extraction was completed, determine the RNA concentration using a Nanodrop instrument. • 5. Perform the first-strand cDNA synthesis reaction with 1 μg of RNA using the HiScript TM II Q RT SuperMIX for qPCR(+gDNA wiper) Kit (Vazyme, #R223-01) for RT-qPCR. Follow the manufacturer's ‘First-Strand cDNA Synthesis’ protocol. This reaction would yield a 20 μl product. • 6. Dilute the 10 μl cDNA product in 80 μl of nuclease-free water. • 7. Pipette the diluted cDNA product (1 μl), Sybr green master mix (5 μl, Transgen, #AQ131) and 0.95 μM reverse/forward primer mix (4 μl) into a 384-well PCR plate in triplicate, either manually or using an automated pipetting robot. The complete primer panel included the target genes and the housekeeping gene (RPL13A). In the analysis, also included a sample of undifferentiated hPSCs to determine the gene expression levels relative to the expression in hPSCs. • 8. Analyze the samples by running a quantitative PCR on the LightCycler 480 instrument using a 40× cycle two-step protocol with a 60° C., 60 sec annealing/elongation step and a 95° C., 30 sec denaturation step. The average CT values from the three technical replicates were used for calculations of relative gene expression using the ΔΔCT method. For each gene, calculate the FC of the differentiated samples relative to the undifferentiated control sample using the housekeeping gene for normalization. Next, calculate the average of the FC values on the basis of the housekeeping gene. (3) Immunocytochemical Analysis • 1. Cell fixation: Remove the medium from the cells and wash with PBS. Add 4% (wt/vol) PFA (e.g., 200 μl to a well in a 48-well plate) and incubate at room temperature (RT) for 15 min. after incubation, wash the cells three times in PBS. • 2. Blocking: Remove PBS from the wells and add blocking solution to the cells, add enough volume to cover the cells. Leave the cells in blocking solution for 1 h at RT. • 3. Primary antibodies incubation: Remove the blocking solution from the cells and add the primary antibody solutions (˜100 μl/cm^2). […]

Compound	expression of Foxa2 (percentage of Foxa2+ imDAPs) (Example 9, P1 cells compared with P0 cells, DLL4/VTN-coated, FIG. 5C)	FOXA2 expression (percentage of Foxa2+ imDAPs) (Example 8, VTN or DLL4/VTN coating, with or without SB431542, FIG. 4C)
c1ccc2c(-c3cnn4cc(-c5ccc(N6CCNCC6)cc5)cnc34)ccnc2c1 [LDN193189]	slightly decreased the expression of FOXA2 for imDAPs	–
DLL4: Notch agonist used as second coating matrix	–	could improve FOXA2 expression
